Laboratory results: paper PMC5775280, “Functional Characterization and Signaling Systems of Corazonin and Red Pigment Concentrating Hormone in the Green Shore Crab, Carcinus maenas” (Frontiers in Neuroscience, 2018)
Peptide text beside a SMILES is read from it.

Columns and labels:
[1] = Hemolymph glucose levels after peptide injection; format: in vivo, Carcinus maenas; settings: injection 100 pmol, n = 8
Experimental: Adipokinetic and glucose mobilizing activity of […] and ACP were performed by measurement of triglycerides in hemolymph ([…] et al., [2014]) and glucose (Chung and Webster, [1996]). Hemolymph samples (ca. 100 μl) were taken from crabs injected with each peptide at 0 and 90 min, and subsequently assayed.

[2] = biological target: T1, C. maenas RPCHR (red pigment concentrating hormone receptor) (Carcinus maenas, UniProt A0A2L0WQF2); assay: Aequorin luminescence Ca2+ mobilization in CHO-K1-Aeq cells transiently expressing RPCHR; format: cell-based; settings: CHO-K1-Aeq cells (without Gα16) transiently expressing RPCHR; luminescence response normalized to total Ca2+ response; dose response curves, means of n = 4
T1 sequence (A0A2L0WQF2 1-529): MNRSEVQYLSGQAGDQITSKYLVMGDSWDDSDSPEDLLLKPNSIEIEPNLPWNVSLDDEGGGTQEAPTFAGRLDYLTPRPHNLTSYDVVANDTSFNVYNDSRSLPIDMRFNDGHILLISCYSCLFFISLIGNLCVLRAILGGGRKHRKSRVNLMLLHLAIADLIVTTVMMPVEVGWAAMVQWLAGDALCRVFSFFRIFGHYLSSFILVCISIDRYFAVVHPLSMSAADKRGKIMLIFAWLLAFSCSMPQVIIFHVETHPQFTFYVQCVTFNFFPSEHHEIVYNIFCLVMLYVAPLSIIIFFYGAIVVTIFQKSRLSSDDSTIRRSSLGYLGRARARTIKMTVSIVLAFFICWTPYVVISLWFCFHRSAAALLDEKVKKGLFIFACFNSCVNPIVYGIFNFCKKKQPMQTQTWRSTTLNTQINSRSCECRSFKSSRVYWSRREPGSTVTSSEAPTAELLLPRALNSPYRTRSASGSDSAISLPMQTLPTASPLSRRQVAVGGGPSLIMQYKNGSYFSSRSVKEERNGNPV
Experimental: Chinese hamster ovary (CHO-K1) cells containing stably expressed apoaequorin (Perkin Elmer, Boston, MA) and either Gα16 or Gq subunit (control cells) were cultured in Dulbecco's Modified Eagle Medium (DMEM) F-12 Nutrient Mixture GlutaMax (Gibco®) supplemented with 10% fetal bovine serum (Gibco®). Cells were maintained in vented T75 flasks at 37°C in 5% CO2.
Cells grown in a monolayer to approximately 60% confluency in T75 flasks were transfected with pcDNA3.1 constructs using FugeneHD (Promega) according to the manufacturer's recommendations. Briefly, transfection medium was prepared by combining 800 μl Opti-MEM® (Gibco) with 10 μg vector and 30 μl Fugene HD in a 2 ml polystyrene tube and incubated for 10 min at room temperature. The transfection reagent was added to 5 ml of fresh culture media and the cells incubated overnight at 37°C in 5% CO2. After 24 h, an additional 10 ml of culture media were added to the flasks and the cells returned to 37°C at 5% CO2 for a further overnight incubation.
On the day of the assay, cells were detached from the culture flask by incubating for 12 min in 5 ml 0.2% EDTA in PBS. The cells were washed with 10 ml DMEM clear DMEM/F-12 containing L-glutamine, 15 mM HEPES and moved to 50 ml centrifuge tubes. Cells were centrifuged for 5 min at 260 g and resuspended to a concentration of 5 × 10^6 cells ml^−1 in 0.2 μm filtered BSA medium (DMEM/F-12 containing L-glutamine, 15 mM HEPES + 0.1% BSA). Coelenterazine h (Invitrogen, Paisley, UK) was added to a concentration of 5 μM and the cells incubated for 4 h in the dark at room temperature whilst gently rocking. The cells were diluted 10-fold and incubated for a further 60 min before use in the assay. Synthetic peptides (GeneCust, Dudelange, Luxembourg) were reconstituted in 30% acetonitrile, dried in small aliquots by vacuum centrifugation and subsequently redissolved in BSA medium. Fifty microliter aliquots were then dispensed into quadruplicate wells of a white 96-well plate (OptiPlate, PerkinElmer). Cell suspensions were gently stirred and injected in 50 μl aliquots into each well using a Mithras LB 940 microplate reader (Berthold Technologies, Bad-Wildbad, Germany) and light emission (Ca^2+ response) recorded for 30 s. Cells were then lysed by injection of 0.3% Triton-X in BSA medium and light emission recorded for a further 10 s to measure total Ca^2+ response. BSA medium was used for blank measurements (6 replicate wells per plate) and mock transfection with empty vectors carried out for negative controls. Data was analyzed using MikroWin v5.18 (Mikrotek Laborsysteme GmbH) and SigmaPlot v.13 (Systat Software, Inc.). Receptor response was normalized against total Ca^2+ response.

**Q.** For `CC(C)C[C@H](NC(=O)[C@@H]1CCC(=O)N1)C(=O)N[C@@H](CC(N)=O)C(=O)N[C@@H](Cc1ccccc1)C(=O)N[C@@H](CO)C(=O)N1CCC[C@H]1C(=O)NCC(=O)N[C@@H](Cc1c[nH]c2ccccc12)C(N)=O` [RPCH] (HELM PEPTIDE1{[Glp].L.N.F.S.P.G.W.[am]}$$$$V2.0), which “effect of eyestalk removal on the glucose response” value ([1]; eyestalk removal, 90 min) is on record?
**A.** completely abolished this response

**Q.** What about the “effect on circulating glucose levels, intact crabs” value ([1]; within 90 min, Student's matched pair t-test P < 0.01) of the same compound?
**A.** significantly raised circulating glucose levels

**Q.** And the EC50 [2]?
**A.** 0.02 nM
